This is an account of results in paper PMC6930659, “Antiprotozoal Activity of Turkish Origanum onites Essential Oil and Its Components” (Molecules, 2019).

≈ marks a conversion by molar mass, not a printed value. Entries after “also recorded” stand apart in the source; their conditions may differ.

One experiment concerns T. brucei brucei STIB795. Description: In vivo trypanocidal activity, T. brucei brucei STIB795 mouse model. Also on record: species or system Trypanosoma brucei brucei. The conditions noted are these: for in vivo trypanocidal activity in mice (in words): 100 mg/kg i.p.; for Cured/Infected / Mean Survival: 100 mg/kg × 4 days i.p., NMRI mice; for Mean Survival: untreated control 5.25 days. As to the method:
In vivo efficacy studies in mice were conducted at the Swiss Tropical and Public Health Institute (Basel) (License number 2813) according to the rules and regulations for the protection of animal rights (“Tierschutzverordnung”) of the Swiss “Bundesamt für Veterinärwesen”. They were approved by the veterinary office of Canton Basel-Stadt, Switzerland. Groups of four female NMRI mice weighing 20 to 25 g were infected i.p. on Day 0 (d0) with 10^5 bloodstream forms of T. brucei brucei STIB 795, which is a derivative of strain 427. Compounds were formulated in 100% DMSO diluted 10-fold in distilled water. Mice were treated on four consecutive days (d3 to d6 post-infection) with the Origanum onites oil, as well as carvacrol and thymol, at 100 mg/kg by the i.p. route. One group served as untreated controls, and two other groups were treated with the standard drugs pentamidine (5 mg/kg for 4 days) and melarsoprol (2 mg/kg for 4 days), respectively. The levels of parasitemia of the mice were checked by microscopic examination of tail blood on Day 7 and thereafter twice a week until Day 30 post infection. Mice were considered cured when there was no parasitaemia relapse detected in the tail blood over the 30 day observation period. The day of relapse and surviving days were recorded.

Another experiment has as its system P. falciparum. Also on record: method as in PMID 22441836. The conditions noted are these: cited from earlier work.
The next experiment deals with T. cruzi trypomastigotes. Details: method as in PMID 17024354. To be noted: 24 h incubation; cited from earlier work.
The next experiment relates to T. brucei brucei. Also on record: method as in PMID 20359874. To be noted: life stage or form has not been reported; cited from earlier work.
Another experiment has as its system T. cruzi epimastigotes. Also on record: method as in PMID 17024354. The conditions noted are these: 24 h incubation; cited from earlier work.
The test system of experiment [1] is T. cruzi Tulahuen strain C2C4. The experiment is described as follows: In vitro assay for Trypanosoma cruzi in L-6 cells (β-galactosidase/CPRG). To be noted: highest concentration tested 90 μg/mL; for IC50: Trypanosoma cruzi, L6, Tulahuen C2C4 in L-6 cells, 96 h, means of two determinations ± deviation. It is filed as cell-based. As to the method:
Rat skeletal myoblasts (L-6 cells) were seeded in 96 well microtiter plates (2000 cells/well) in 100 μL RPMI 1640 medium with 10% FBS and 2 mM L-glutamine for 24 h. After that, the medium was removed and replaced by 100 μL per well containing 5000 trypomastigote forms of T. cruzi Tulahuen strain C2C4, containing the β-galactosidase (Lac Z) gene. The medium was removed from the wells after 48 h, and replaced with 100 μL fresh medium with or without a serial drug dilution of seven 3-fold dilution steps covering a range from 90 to 0.123 μg/mL. After 96 h of incubation, the plates were inspected under an inverted microscope to assure growth of the controls and sterility, after which the substrate CPRG/Nonidet ([…]) was added to all wells. A color reaction developed within 2–6 h and could be read photometrically at 540 nm. Data were transferred into the graphic program Softmax Pro (Molecular Devices Cooperation, Sunnyvale, CA, USA) and the IC50 values were calculated from the sigmoidal dose response curves. Benznidazole was the reference drug.

In experiment [2] the test system is intracellular amastigotes of T.-cruzi-infected Vero cells. Details: method as in PMID 20428679. The conditions noted are these: cited from earlier work.
For another experiment, the system named is Trypanosoma cruzi. Details: method as in earlier work. The conditions noted are these: 200 mg/kg/day, intragastric route, 22nd day post-infection; cited from earlier work.
Experiment [3] concerns chloroquine-resistant P. falciparum strain. To be noted: reported to be inactive; cited from earlier work.
For the next experiment, the system named is L. infantum. Also on record: method as in doi:10.1016/j.indcrop.2015.09.049. To be noted: cited from earlier work.

The term IC50 denotes the concentration that gives 50% inhibition. For `Cc1ccc(C(C)C)c(O)c1` [Thymol], in the experiment on T. brucei brucei STIB795, the “in vivo trypanocidal activity in mice (in words)” value is reported as “extended the survival time of infected mice; also recorded: had some effect”, the Cured/Infected is reported as 0/4 and the “Mean Survival” value is recorded as 9.0 days. Further, in the experiment on T. brucei brucei STIB795 (listed as thymol), the “Mean Survival” value worked out at 9 days. Besides, the “IC50 in vitro antimalarial activity” value in the experiment with P. falciparum was 4.5 µg/mL (≈ 30 µM). Besides, in the experiment on T. cruzi trypomastigotes, the “IC50 T. cruzi trypomastigotes” value was 53 µg/mL (≈ 353 µM). Moreover, the “IC50 T. brucei brucei” value in the experiment with T. brucei brucei is 22.9 µg/mL (≈ 152 µM). In addition, the “IC50 T. cruzi epimastigotes” value with T. cruzi epimastigotes was 62 µg/mL (≈ 413 µM). In experiment [1], the IC50 was over 90 µg/mL and the “inhibitory activity against T. cruzi (in words)” value is “inactive”. Besides, the selective index result in [2] (T.-cruzi-infected Vero cells) is “greater than 10”. Also, the “IC50 intracellular amastigotes of T.-cruzi-infected Vero cells” value in experiment [2] was 3.2 µg/mL. Also, the “parasitemia in T. cruzi infected albino mice (in words)” value in the experiment with Trypanosoma cruzi is “significant reduction in parasitemia”.
As for `Cc1ccc(C(C)C)cc1O` [Carvacrol], in the experiment on T. brucei brucei STIB795, the “in vivo trypanocidal activity in mice (in words)” value is “inactive”, the Cured/Infected is 0/4 and the “Mean Survival” value stood at 5.25 days. For the same compound, the IC50 in experiment [3] is over 1000 µM. The “IC50 T. brucei brucei” value with T. brucei brucei was 11.3 µg/mL (≈ 75.2 µM). In experiment [1], the IC50 is over 90 µg/mL and the “inhibitory activity against T. cruzi (in words)” value is “inactive”. The “IC50 L. infantum” value with L. infantum was 7.35 µg/mL (≈ 48.9 µM).
